Key:
[1] = Experiment 5: plasma clearance of ^11C and ^18F labeled AFM, AFA, AFE in one baboon; assay type: in vivo; conditions: one adult male baboon, n = 1 to 4 scans
Protocol: (§1) General scanning methods were as described in Huang et al. (2002). Arterial input function was measured and corrected for metabolites.

[2] = Biodistribution of labeled radioligands in male Sprague-Dawley rats; assay type: in vivo; conditions: mean ± SD, n = 3
Excerpt: Appropriately labeled compounds were studied in animals to assess their binding characteristics in the brain. Procedures for these biodistribution studies are as follows. […] The brain regions (cerebellum, hippocampus, striatum, frontal cortex, thalamus and hypothalamus), along with samples of blood and part of the tail, were removed, weighed, and counted in a Packard Cobra II gamma counter. The percent injected dose (% ID) of the decay- and tail-corrected activity in the brain regions and blood were calculated based upon C-11 standards prepared from the injection solution, and the % ID/g were calculated using the tissue weights.

SERT [3] = conditions: same baboon, one tissue compartment model
Protocol: The animal was then injected with [^18F]AFM (2.60 mCi, 425 Ci/mmol, 1.51 μg) and scanned for 90 minutes. Analysis of the input function and brain uptake was performed as described in the previous section. […] Arterial activity was corrected for parent fraction to form the input function.
Data were analyzed with a one tissue compartment model.

[4] = Experiment 4: plasma analysis, [^11C]AFM and [^18F]AFM in the same baboon
Protocol: The animal was then injected with [^18F]AFM (2.60 mCi, 425 Ci/mmol, 1.51 μg) and scanned for 90 minutes. […] Arterial activity was corrected for parent fraction to form the input function.

SERT [5] = assay: Experiment 5: PET brain imaging of ^11C and ^18F labeled AFM, AFA, AFE in one baboon; assay type: in vivo; conditions: one adult male baboon, n = 1 to 4 scans, two-compartment model
Protocol: as §1
Activity distributed in the brain in accordance to the known density distribution pattern of SERT (Laruelle et al., 1988). […] Data were analyzed with a two-compartment model, using the metabolite-corrected arterial time-activity curve as input function. This analysis provided the regional distribution volumes (VT, mL/g).
The nonspecific distribution volume, measured as the distribution volume of the cerebellum (a region with negligible SERT density) was in a similar range for all tracers (10 to 30 mL/g, Table 16).
The specific to nonspecific partition coefficient, V3″, was calculated as the ratio of VT in the region of interest (ROI) to cerebellum VT minus one. V3″ provides a measure related to receptor parameters as follows: […]

[6] = baboons (Acton et al., 1999a); cited from earlier work
SERT [7] = conditions: literature; cited from earlier work

SMILES: CN(C)Cc1ccccc1Sc1ccc(C[18F])cc1N [[^18F]AFM, [^18F]2-[2-(Dimethylaminomethyl)phenylthio]-5-fluoromethylphenylamine]
- Clearance [1]: 40 ± 1 L/h
- % ID/g Blood ([2]; 10 min post-injection): 0.37 ± 0.04 % ID/g
- % ID/g Cerebellum ([2]; 10 min post-injection): 0.33 ± 0.04 % ID/g
- % ID/g Frontal Ctx. ([2]; 10 min post-injection): 0.82 ± 0.14 % ID/g
- % ID/g Hippocamp. ([2]; 10 min post-injection): 0.51 ± 0.07 % ID/g
- % ID/g Hypothal. ([2]; 10 min post-injection): 0.70 ± 0.08 % ID/g
- % ID/g Striatum ([2]; 10 min post-injection): 0.69 ± 0.15 % ID/g
- % ID/g Thalamus ([2]; 10 min post-injection): 0.72 ± 0.13 % ID/g
- % ID/g Blood ([2]; 30 min post-injection): 0.28 ± 0.02 % ID/g
- % ID/g Cerebellum ([2]; 30 min post-injection): 0.23 ± 0.03 % ID/g
- % ID/g Frontal Ctx. ([2]; 30 min post-injection): 0.99 ± 0.20 % ID/g
- % ID/g Hippocamp. ([2]; 30 min post-injection): 0.64 ± 0.12 % ID/g
- % ID/g Hypothal. ([2]; 30 min post-injection): 0.82 ± 0.16 % ID/g
- % ID/g Striatum ([2]; 30 min post-injection): 0.83 ± 0.12 % ID/g
- % ID/g Thalamus ([2]; 30 min post-injection): 0.88 ± 0.06 % ID/g
- % ID/g Blood ([2]; 60 min post-injection): 0.10 ± 0.04 % ID/g
- % ID/g Cerebellum ([2]; 60 min post-injection): 0.13 ± 0.02 % ID/g
- % ID/g Frontal Ctx. ([2]; 60 min post-injection): 0.71 ± 0.18 % ID/g
- % ID/g Hippocamp. ([2]; 60 min post-injection): 0.45 ± 0.09 % ID/g
- % ID/g Hypothal. ([2]; 60 min post-injection): 0.71 ± 0.14 % ID/g
- % ID/g Striatum ([2]; 60 min post-injection): 0.57 ± 0.12 % ID/g
- % ID/g Thalamus ([2]; 60 min post-injection): 0.67 ± 0.15 % ID/g
- % ID/g Blood ([2]; 90 min post-injection): 0.08 ± 0.03 % ID/g
- % ID/g Cerebellum ([2]; 90 min post-injection): 0.08 ± 0.01 % ID/g
- % ID/g Frontal Ctx. ([2]; 90 min post-injection): 0.52 ± 0.19 % ID/g
- % ID/g Hippocamp. ([2]; 90 min post-injection): 0.36 ± 0.12 % ID/g
- % ID/g Hypothal. ([2]; 90 min post-injection): 0.58 ± 0.13 % ID/g
- % ID/g Striatum ([2]; 90 min post-injection): 0.45 ± 0.17 % ID/g
- % ID/g Thalamus ([2]; 90 min post-injection): 0.50 ± 0.15 % ID/g
- % ID/g Blood ([2]; 120 min post-injection): 0.04 ± 0.00 % ID/g
- % ID/g Cerebellum ([2]; 120 min post-injection): 0.07 ± 0.02 % ID/g
- % ID/g Frontal Ctx. ([2]; 120 min post-injection): 0.38 ± 0.09 % ID/g
- % ID/g Hippocamp. ([2]; 120 min post-injection): 0.28 ± 0.05 % ID/g
- % ID/g Hypothal. ([2]; 120 min post-injection): 0.55 ± 0.08 % ID/g
- % ID/g Striatum ([2]; 120 min post-injection): 0.42 ± 0.10 % ID/g
- % ID/g Thalamus ([2]; 120 min post-injection): 0.56 ± 0.10 % ID/g
- Thalamus V3″ (SERT [3]): 2.27
- Clearance of the parent compound [4]: 54 L/h
- Percent plasma activity corresponding to the parent compound ([4]; 2 minutes): 63.5%
- Percent plasma activity corresponding to the parent compound ([4]; 4 minutes): 40.0%
- Percent plasma activity corresponding to the parent compound ([4]; 12 minutes): 21.3%
- Percent plasma activity corresponding to the parent compound ([4]; 30 minutes): 8.7%
- Percent plasma activity corresponding to the parent compound ([4]; 60 minutes): 5.3%
- Percent plasma activity corresponding to the parent compound ([4]; 90 minutes): 4.6%
- Cerebellum V (nonspecific distribution volume) (SERT [5]): 23 ± 6 mL/g

SMILES: CN(C)Cc1ccccc1Sc1ccc([123I])cc1N [[^123I]ADAM]
- VT CER measured with SPECT [6]: 2.25 ± 0.46 mL/g
- Target to background ratio in vivo compared to [^123I]IDAM (SERT [7]): four times higher
